{
  "source": "patent CN105777727A",
  "about": "“2-噻吩吡啶类化合物及其用途” (Shenyang Sinochem Agrochemicals R&D Co Ltd, priority 2014, dated 2016)",
  "tested_on": "cucumber anthracnose (黄瓜炭疽病)",
  "test": "In vivo protective activity against cucumber anthracnose (potted plants, inoculation 24 h after spraying)",
  "data": [
    {"smiles": "O=C(NCCc1ccc(F)cc1)c1ccc(-c2cccs2)nc1CCl", "note": "[24.3]", "values": [
      {"measurement": "control effect", "setting": "6.5 mg/L", "value": 98, "unit": "%"},
      {"measurement": "control effect", "setting": "25 mg/L", "value": 100, "unit": "%"},
      {"measurement": "control effect", "setting": "100 mg/L", "value": "> 98", "unit": "%"},
      {"measurement": "control effect", "setting": "400 mg/L", "value": 100, "unit": "%"}
    ]}
  ]
}
